# Target: human HPK1 (MAP4K1) (Homo sapiens (Human), UniProt Q92918)
# Test: HPK1 IC50 Assay (TR-FRET peptide phosphorylation)
# Type: biochemical
# In short: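 Pre-activated, dually phosphorylated baculovirus-expressed HPK1 kinase domain (0.15 nM) preincubated 15 min with compound, then reacted 3 h at 25° C with 10 μM ATP and 1 μM STK S1 peptide in BES pH 7.0 buffer. Phosphopeptide read by TR-FRET (665/620 nm); four-parameter fit, geometric-mean IC50.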
# [1] = recombinant HPK1 kinase domain 0.15 nM, 10 μM ATP, 1 μM STK S1 peptide, geometric mean of multiple experiments
# [2] = 0.15 nM HPK1, 10 μM ATP, 1 μM STK S1 peptide substrate, geometric mean
# Sequence of human HPK1 (MAP4K1) (Q92918 17-274): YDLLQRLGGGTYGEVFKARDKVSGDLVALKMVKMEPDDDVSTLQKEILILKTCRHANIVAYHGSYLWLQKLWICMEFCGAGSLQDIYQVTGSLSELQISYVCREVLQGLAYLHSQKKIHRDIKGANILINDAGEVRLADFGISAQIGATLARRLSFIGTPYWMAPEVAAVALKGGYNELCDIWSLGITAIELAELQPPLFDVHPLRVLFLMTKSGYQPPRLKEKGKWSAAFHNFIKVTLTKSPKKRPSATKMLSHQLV
SMILES,IC50 [1] [nM],IC50 [2] [nM]
Cc1ccc(Nc2nc(-c3ccc4c(c3)N([C@H]3C[C@@H](N5CCC[C@@H](F)C5)C3)C(=O)C4(C)C)cc3ncn(C4CC4)c23)cc1C(N)=O [Example 17],0.04,–
COCC1(NC(=O)c2cc(Nc3nc(-c4ccc5c(c4)N([C@H]4C[C@@H](N6CCCCC6)C4)C(=O)C54CCN(C(C)=O)CC4)cc4ncn(C(C)C)c34)c(F)cc2C)CC1 [Example 90],0.3,–
"CCNC(=O)c1cc(Nc2nc(-c3cnc4c(c3)N([C@H]3C[C@@](C)(N5CCC6CC6C5)C3)C(=O)C4(C)C)cc3ncn(C(C)C)c23)c(F)c(F)c1Cl (some centres unmarked) [Example 251, 5-((6-(1-((1s,3s)-3-(3-azabicyclo[4.1.0]heptan-3-yl)-3-methylcyclobutyl)-3,3-dimethyl-2-oxo-2,3-dihydro-1H-pyrrolo[3,2-b]pyridin-6-yl)-3-isopropyl-3H-imidazo[4,5-c]pyridin-4-yl)amino)-2-chloro-N-ethyl-3,4-difluorobenzamide]",0.04,–
"Cc1ccc(Nc2nc(-c3ccc4c(c3)N([C@H]3C[C@@H](N5CCCCC5)C3)C(=O)C4(C)C)cc3ncn(C(C)C)c23)cc1C(=O)N[C@@H](C)C(F)F [Example 21A, N-(1,1-difluoropropan-2-yl)-5-((6-(3,3-dimethyl-2-oxo-1-((1s,3s)-3-(piperidin-1-yl)cyclobutyl)indolin-6-yl)-3-isopropyl-3H-imidazo[4,5-c]pyridin-4-yl)amino)-2-methylbenzamide]",0.07,–
"CC(C)n1cnc2cc(-c3cnc4c(c3)N([C@H]3C[C@@](C)(N5CCC6CC6C5)C3)C(=O)C4(C)C)nc(Nc3cc(C(=O)NCC(F)F)c(Cl)c(F)c3F)c21 (some centres unmarked) [Example 256, 5-((6-(1-((1s,3s)-3-(3-azabicyclo[4.1.0]heptan-3-yl)-3-methylcyclobutyl)-3,3-dimethyl-2-oxo-2,3-dihydro-1H-pyrrolo[3,2-b]pyridin-6-yl)-3-isopropyl-3H-imidazo[4,5-c]pyridin-4-yl)amino)-2-chloro-N-(2,2-difluoroethyl)-3,4-difluorobenzamide]",0.05,–
"Cc1ccc(Nc2nc(-c3ccc4c(c3)N([C@H]3C[C@@H](N5CCCCC5)C3)C(=O)C4(C)C)cc3ncn(C(C)C)c23)cc1C(=O)NC(C)C(F)F (some centres unmarked) [Example 21, N-(1,1-difluoropropan-2-yl)-5-((6-(3,3-dimethyl-2-oxo-1-((1s,3s)-3-(piperidin-1-yl)cyclobutyl)indolin-6-yl)-3-isopropyl-3H-imidazo[4,5-c]pyridin-4-yl)amino)-2-methylbenzamide]",0.05,–
"CC[C@H](C)n1cnc2cc(-c3ccc4c(c3)N([C@H]3C[C@@H](N5CCC[C@@H](F)C5)C3)C(=O)C43CCN(C(C)=O)CC3)nc(Nc3ccc(C)c(C(=O)NC)c3)c21 [Example 157, 5-((6-(1′-acetyl-1-((1S,3R)-3-((R)-3-fluoropiperidin-1-yl)cyclobutyl)-2-oxospiro[indoline-3,4′-piperidin]-6-yl)-3-((S)-sec-butyl)-3H-imidazo[4,5-c]pyridin-4-yl)amino)-N,2-dimethylbenzamide]",0.2,–
"CNC(=O)c1cc(Nc2nc(-c3ccc4c(c3)N(C3CC(N5CCC[C@H](C(F)F)C5)C3)C(=O)C4(C)C)cc3ncn(C(C)C)c23)ccc1C (some centres unmarked) [Example 105A, 5-((6-(1-((1s,3s)-3-(3-(difluoromethyl)piperidin-1-yl)cyclobutyl)-3,3-dimethyl-2-oxoindolin-6-yl)-3-isopropyl-3H-imidazo[4,5-c]pyridin-4-yl)amino)-N,2-dimethylbenzamide]",0.2,–
"Cc1c(C(=O)NC2(C(F)F)CC2)cc(Nc2nc(-c3cnc4c(c3)N([C@H]3C[C@@](C)(N5CCC6CC5CO6)C3)C(=O)C4(C)C)cc3ncn(C(C)C)c23)c(F)c1F (mixture of isomers) [Example 190, 5-((6-(1-((1s,3s)-3-(6-Oxa-2-azabicyclo[3.2.1]octan-2-yl)-3-methylcyclobutyl)-3,3-dimethyl-2-oxo-2,3-dihydro-1H-pyrrolo[3,2-b]pyridin-6-yl)-3-isopropyl-3H-imidazo[4,5-c]pyridin-4-yl)amino)-N-(1-(difluoromethyl)cyclopropyl)-3,4-difluoro-2-methylbenzamide]",0.07,–
CCNC(=O)c1cc(Nc2nc(-c3ccc4c(c3)N([C@H]3C[C@@H](N5CCCCC5)C3)C(=O)C43CCN(C(=O)CC)CC3)cc3ncn(C(C)C)c23)c(F)cc1C [Example 60],0.2,–
"CCNC(=O)c1cc(Nc2nc(-c3ccc4c(c3)N([C@H]3C[C@@](C)(N5CCCCC5)C3)C(=O)C4(C)C)cc3ncn(C(C)C)c23)c(F)cc1C [Example 276, 5-((6-(3,3-dimethyl-1-((1s,3s)-3-methyl-3-(piperidin-1-yl)cyclobutyl)-2-oxoindolin-6-yl)-3-isopropyl-3H-imidazo[4,5-c]pyridin-4-yl)amino)-N-ethyl-4-fluoro-2-methylbenzamide]",–,0.06
"CC(C)NC(=O)c1cc(Nc2nc(-c3cnc4c(c3)N([C@H]3C[C@@](C)(N5CCCCC5)C3)C(=O)C4(C)C)cc3ncn(C(C)C)c23)c(F)c(F)c1Cl [Example 267, 2-chloro-5-((6-(3,3-dimethyl-1-((1s,3s)-3-methyl-3-(piperidin-1-yl)cyclobutyl)-2-oxo-2,3-dihydro-1H-pyrrolo[3,2-b]pyridin-6-yl)-3-isopropyl-3H-imidazo[4,5-c]pyridin-4-yl)amino)-3,4-difluoro-N-isopropylbenzamide]",–,0.1
"CC(C)NC(=O)c1cc(Nc2nc(-c3cnc4c(c3)N([C@H]3C[C@@](C)(N5CCC6CC6C5)C3)C(=O)C4(C)C)cc3ncn(C(C)C)c23)c(F)c(F)c1Cl (some centres unmarked) [Example 254, 5-((6-(1-((1s,3s)-3-(3-azabicyclo[4.1.0]heptan-3-yl)-3-methylcyclobutyl)-3,3-dimethyl-2-oxo-2,3-dihydro-1H-pyrrolo[3,2-b]pyridin-6-yl)-3-isopropyl-3H-imidazo[4,5-c]pyridin-4-yl)amino)-2-chloro-3,4-difluoro-N-isopropylbenzamide]",0.05,–
CNC(=O)c1cc(Nc2nc(-c3ccc4c(c3)N([C@H]3C[C@@H](N5CCCCC5)C3)C(=O)C43CCOCC3)cc3ncn(C(C)C)c23)c(F)cc1C [Example 35],0.1,–
"Cc1cc(F)c(Nc2nc(-c3cnc4c(c3)N([C@H]3C[C@@](C)(N5CCCCC5)C3)C(=O)C43CCOCC3)cc3ncn(C(C)C)c23)cc1C(=O)NC1(C(F)F)CC1 [Example 206, N-(1-(Difluoromethyl)cyclopropyl)-4-fluoro-5-((3-isopropyl-6-(1′-((1s,3s)-3-methyl-3-(piperidin-1-yl)cyclobutyl)-2′-oxo-1′,2,2′,3,5,6-hexahydrospiro[pyran-4,3′-pyrrolo[3,2-b]pyridin]-6′-yl)-3H-imidazo[4,5-c]pyridin-4-yl)amino)-2-methylbenzamide]",0.07,–
"CNC(=O)c1cc(Nc2nc(-c3ccc4c(c3)N([C@H]3C[C@@H](N5CCC[C@@H](F)C5)C3)C(=O)C43CCN(C4COC4)CC3)cc3ncn(C(C)C)c23)c(F)cc1C [Example 170, 4-fluoro-5-((6-(1-((1S,3s)-3-((R)-3-fluoropiperidin-1-yl)cyclobutyl)-1′-(oxetan-3-yl)-2-oxospiro[indoline-3,4′-piperidin]-6-yl)-3-isopropyl-3H-imidazo[4,5-c]pyridin-4-yl)amino)-N,2-dimethylbenzamide]",0.8,–
CNC(=O)c1cc(Nc2nc(-c3ccc4c(c3)N([C@H]3C[C@@H](N5CC[C@H](F)C5)C3)C(=O)C4(C)C)cc3ncn(C(C)C)c23)ccc1C [Example 5],0.2,–
CNC(=O)c1cc(Nc2nc(-c3ccc4c(c3)N([C@H]3C[C@@H](N5CCC[C@@H](F)C5)C3)C(=O)C43CCN(C(C)=O)CC3)cc3ncn(C(C)C)c23)ccc1C [Example 162],0.1,–
CNC(=O)c1cc(Oc2nc(-c3ccc4c(c3)N([C@H]3C[C@@H](N5CCCCC5)C3)C(=O)C4(C)C)cc3ncn(C4CC4)c23)ccc1C [Example 34],0.6,–
CNC(=O)c1cc(Nc2nc(-c3ccc4c(c3)N([C@H]3C[C@@H](N5CCCCC5)C3)C(=O)C43CCN(C(C)=O)CC3)cc3ncn(C4CC4)c23)ccc1Cl [Example 47],0.2,–
CNC(=O)c1cc(Nc2nc(-c3ccc4c(c3)N([C@H]3C[C@@H](N5CCCC6(C5)CC6(F)F)C3)C(=O)C43CCN(C(C)=O)CC3)cc3ncn(C4CC4)c23)ccc1C (some centres unmarked) [Example 163],0.1,–
CCn1cnc2cc(-c3ccc4c(c3)N([C@H]3C[C@@H](N5CCCCC5)C3)C(=O)C43CCN(C(C)=O)CC3)nc(Nc3ccc(C)c(C(=O)NC)c3)c21 [Example 49],0.1,–
"Cc1c(C(=O)NC2(C(F)F)CC2)cc(Nc2nc(-c3cc4c(nc3F)C(C)(C)C(=O)N4[C@H]3C[C@@](C)(N4CCCCC4)C3)cc3ncn(C(C)C)c23)c(F)c1F [Example 195, N-(1-(Difluoromethyl)cyclopropyl)-3,4-difluoro-5-((6-(5-fluoro-3,3-dimethyl-1-((1s,3s)-3-methyl-3-(piperidin-1-yl)cyclobutyl)-2-oxo-2,3-dihydro-1H-pyrrolo[3,2-b]pyridin-6-yl)-3-isopropyl-3H-imidazo[4,5-c]pyridin-4-yl)amino)-2-methylbenzamide]",0.07,–
CC(=O)N1CCC2(CC1)C(=O)N([C@H]1C[C@@H](N3CCCCC3)C1)c1cc(-c3cc4ncn(C(C)C)c4c(Nc4cc(C(=O)NC(C)C)c(F)cc4F)n3)ccc12 [Example 180],0.2,–
CNC(=O)c1cc(Nc2nc(-c3ccc4c(c3)N([C@H]3C[C@@H](N5CCCCC5)C3)C(=O)C43CCN(CC(F)F)CC3)cc3ncn(C(C)C)c23)c(F)cc1C [Example 61],0.2,–
"CC(C)n1cnc2cc(-c3cnc4c(c3)N([C@H]3C[C@@](C)(N5CCCCC5)C3)C(=O)C4(C)C)nc(Nc3cc(C(=O)NC4(CF)CC4)c(Cl)c(F)c3F)c21 [Example 211, 2-Chloro-5-((6-(3,3-dimethyl-1-((1s,3s)-3-methyl-3-(piperidin-1-yl)cyclobutyl)-2-oxo-2,3-dihydro-1H-pyrrolo[3,2-b]pyridin-6-yl)-3-isopropyl-3H-imidazo[4,5-c]pyridin-4-yl)amino)-3,4-difluoro-N-(1-(fluoromethyl)cyclopropyl)benzamide]",0.1,–
